Experimental data reported in patent US20170369444A1, “INHIBITORS OF HISTONE DEMETHYLASES” (Gilead Sciences, Inc., priority 2014, published 2017).

Assays:
Format in all cases: biochemical
PHF8 (KDM7) = PHF8 (KDM7) (Homo sapiens, UniProt Q9UPP1); assay: Histone lysine demethylase AlphaLISA assay, PHF8; conditions: in vitro enzyme, read-out: PHF8 IC50 (HDME Inhibition)
Description: (§1) Histone lysine demethylase AlphaLISA assays are performed to determine IC50 values. […] Assays are performed analogously to the protocol described by PerkinElmer (Roy et al. PerkinElmer Technical Note: AlphaLISA #12, April 2011).
(§2) Assays are performed analogously to the protocol described by PerkinElmer (Roy et al. PerkinElmer Technical Note: AlphaLISA #12, April 2011).
(§3) Enzymes (final assay concentration 0.1-2.5 nM) are dissolved in enzyme buffer and incubated for 10 min before 5 μL is added to 5 μL 3% DMSO solutions of compounds in enzyme buffer, incubated for another 10 minutes, before 5 μL substrate solution is added and the reaction mixture is incubated at room temperature. 10 μL acceptor beads, suspended Epigenetic Buffer (Perkin Elmer AL008) from stock, are added and the suspension is incubated in the dark at room temperature, before 10 μL suspension of streptavidin donor beads (Perkin Elmer 6760002) in Epigenetic Buffer is added. After incubation at room temperature in the dark the plates are read.
(§4) Substrate solution: Substrate (final assay concentration 50-200 nM), 50 mM Hepes (pH 7.4-8.0), 0.003% Tween-20, 0.1% BS, 25 μM L-Asc, 10 μM α-KG. Enzyme Buffer: 50 mM Hepes (pH 7.4-8.0), 0.003% Tween-20, 0.1% BSA; 5 μM (NH4)2Fe(SO4)2

KDM2B (FBXL10) = target: T1, KDM2B (FBXL10) (Homo sapiens, UniProt Q8NHM5); assay: Histone lysine demethylase AlphaLISA assay, KDM2B; conditions: in vitro enzyme, read-out: KDM2B IC50 (HDME Inhibition)
T1 construct: 1-650; purchased BPS Bioscience, US; host or cells: Bac (baculovirus/insect cells)
T1 sequence (Q8NHM5 1-650): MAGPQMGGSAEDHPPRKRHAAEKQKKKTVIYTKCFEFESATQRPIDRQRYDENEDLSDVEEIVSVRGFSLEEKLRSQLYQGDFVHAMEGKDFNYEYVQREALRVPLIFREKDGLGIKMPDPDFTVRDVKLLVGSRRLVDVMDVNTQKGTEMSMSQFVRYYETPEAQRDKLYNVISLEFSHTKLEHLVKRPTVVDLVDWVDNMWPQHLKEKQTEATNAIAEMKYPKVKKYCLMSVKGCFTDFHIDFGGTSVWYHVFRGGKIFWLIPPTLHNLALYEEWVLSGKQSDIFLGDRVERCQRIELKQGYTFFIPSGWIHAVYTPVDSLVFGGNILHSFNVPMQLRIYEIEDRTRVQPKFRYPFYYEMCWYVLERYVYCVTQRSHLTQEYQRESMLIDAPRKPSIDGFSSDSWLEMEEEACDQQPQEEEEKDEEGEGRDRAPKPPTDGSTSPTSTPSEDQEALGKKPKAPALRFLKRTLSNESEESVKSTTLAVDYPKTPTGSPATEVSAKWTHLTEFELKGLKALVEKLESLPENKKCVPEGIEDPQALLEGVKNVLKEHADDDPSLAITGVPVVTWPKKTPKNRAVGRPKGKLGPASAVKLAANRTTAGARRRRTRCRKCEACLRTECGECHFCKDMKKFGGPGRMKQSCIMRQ
Description: as §1, §2, §3, §4

KDM6A (UTX) = target: T2, KDM6A (UTX) (Homo sapiens, UniProt O15550); assay: Histone lysine demethylase AlphaLISA assay, KDM6A; conditions: in vitro enzyme, read-out: KDM6A IC50 (HDME Inhibition)
T2 construct: 919-1401; host or cells: E. coli
Description: as §1, §2, §3, §4

KDM5B (PLU-1) = target: T3, KDM5B (PLU-1) (Homo sapiens, UniProt Q9UGL1); assay: Histone lysine demethylase AlphaLISA assay, KDM5B; conditions: in vitro enzyme, read-out: KDM5B IC50 (HDME Inhibition)
T3 construct: 1-809; host or cells: E. coli
T3 sequence (Q9UGL1 1-809): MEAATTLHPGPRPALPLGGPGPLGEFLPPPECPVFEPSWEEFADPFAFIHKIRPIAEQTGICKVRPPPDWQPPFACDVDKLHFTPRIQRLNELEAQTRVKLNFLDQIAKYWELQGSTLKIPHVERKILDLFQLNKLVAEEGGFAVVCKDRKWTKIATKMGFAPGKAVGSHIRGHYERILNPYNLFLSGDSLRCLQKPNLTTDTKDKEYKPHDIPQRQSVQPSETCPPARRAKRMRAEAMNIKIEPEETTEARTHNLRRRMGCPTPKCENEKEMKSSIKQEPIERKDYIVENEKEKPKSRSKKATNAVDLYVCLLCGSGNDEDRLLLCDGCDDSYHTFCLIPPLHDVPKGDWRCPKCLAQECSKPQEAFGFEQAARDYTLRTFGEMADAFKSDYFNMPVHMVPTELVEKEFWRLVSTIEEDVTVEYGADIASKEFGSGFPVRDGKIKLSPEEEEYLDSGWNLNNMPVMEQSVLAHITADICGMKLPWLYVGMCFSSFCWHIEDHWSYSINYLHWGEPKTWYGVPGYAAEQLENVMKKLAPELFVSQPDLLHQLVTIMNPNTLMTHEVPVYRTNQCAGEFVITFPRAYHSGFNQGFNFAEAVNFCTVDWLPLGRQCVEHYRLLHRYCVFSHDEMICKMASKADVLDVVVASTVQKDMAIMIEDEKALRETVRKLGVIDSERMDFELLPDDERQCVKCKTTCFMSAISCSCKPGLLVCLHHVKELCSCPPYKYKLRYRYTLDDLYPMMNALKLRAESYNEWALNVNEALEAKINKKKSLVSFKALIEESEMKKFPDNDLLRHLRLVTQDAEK
Description: as §1, §2, §3, §4

T2 sequence (O15550 919-1401): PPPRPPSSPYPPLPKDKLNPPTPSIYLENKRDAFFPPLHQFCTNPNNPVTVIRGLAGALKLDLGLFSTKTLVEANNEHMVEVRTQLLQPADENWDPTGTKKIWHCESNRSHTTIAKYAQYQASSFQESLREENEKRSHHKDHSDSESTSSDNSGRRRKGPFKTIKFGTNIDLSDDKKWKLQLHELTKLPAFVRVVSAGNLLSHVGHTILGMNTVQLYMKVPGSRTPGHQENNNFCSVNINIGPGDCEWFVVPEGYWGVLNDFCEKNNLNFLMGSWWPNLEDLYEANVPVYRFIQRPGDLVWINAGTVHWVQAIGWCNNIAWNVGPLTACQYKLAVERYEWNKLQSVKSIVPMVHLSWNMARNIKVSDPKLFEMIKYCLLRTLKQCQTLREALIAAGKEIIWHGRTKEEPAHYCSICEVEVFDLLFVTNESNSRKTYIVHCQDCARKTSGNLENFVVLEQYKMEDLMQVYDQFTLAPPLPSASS
Sequence of PHF8 (KDM7) (Q9UPP1 whole entry): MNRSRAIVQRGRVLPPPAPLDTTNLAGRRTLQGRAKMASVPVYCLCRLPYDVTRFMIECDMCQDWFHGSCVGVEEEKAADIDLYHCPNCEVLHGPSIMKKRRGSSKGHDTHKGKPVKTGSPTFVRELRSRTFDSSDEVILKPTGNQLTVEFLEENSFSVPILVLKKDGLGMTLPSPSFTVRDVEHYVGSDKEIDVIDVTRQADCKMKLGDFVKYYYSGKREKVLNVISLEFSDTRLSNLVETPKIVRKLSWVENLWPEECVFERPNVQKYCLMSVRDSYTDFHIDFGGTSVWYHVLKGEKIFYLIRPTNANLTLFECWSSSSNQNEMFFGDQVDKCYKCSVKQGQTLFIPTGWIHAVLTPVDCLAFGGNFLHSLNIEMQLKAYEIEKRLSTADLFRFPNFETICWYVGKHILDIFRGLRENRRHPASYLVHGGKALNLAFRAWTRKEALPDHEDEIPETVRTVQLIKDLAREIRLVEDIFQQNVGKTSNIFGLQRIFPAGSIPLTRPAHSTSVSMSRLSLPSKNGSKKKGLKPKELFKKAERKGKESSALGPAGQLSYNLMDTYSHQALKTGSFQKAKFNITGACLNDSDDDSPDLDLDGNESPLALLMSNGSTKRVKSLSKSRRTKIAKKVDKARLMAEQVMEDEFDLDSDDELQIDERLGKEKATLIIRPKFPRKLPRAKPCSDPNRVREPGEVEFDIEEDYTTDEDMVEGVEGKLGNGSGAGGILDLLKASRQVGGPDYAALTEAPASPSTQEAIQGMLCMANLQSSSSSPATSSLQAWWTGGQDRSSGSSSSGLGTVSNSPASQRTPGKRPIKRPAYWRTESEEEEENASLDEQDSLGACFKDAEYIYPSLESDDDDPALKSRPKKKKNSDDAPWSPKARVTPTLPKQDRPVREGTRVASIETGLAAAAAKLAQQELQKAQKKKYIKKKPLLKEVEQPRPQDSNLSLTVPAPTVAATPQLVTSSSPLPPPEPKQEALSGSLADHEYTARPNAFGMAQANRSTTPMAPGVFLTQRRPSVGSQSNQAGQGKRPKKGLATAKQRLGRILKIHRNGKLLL

| Structure (SMILES) | IC50 (PHF8 (KDM7)) | IC50 (KDM2B (FBXL10)) | IC50 (KDM6A (UTX)) | IC50 (KDM5B (PLU-1)) |
| --- | --- | --- | --- | --- |
| CC(N[C@@H](C)C(=O)NCc1ccccc1O)c1cc(C(=O)O)ccn1 (stereo partly drawn) [Compound 6, 2-(1-{[(1S)-1-{[(2-hydroxyphenyl)methyl]carbamoyl}ethyl]amino}ethyl)pyridine-4-carboxylic acid] | 0.25 to 2.5 µM | 0.25 to 2.5 µM | > 2.5 µM | – |
| CC(C)C[C@H](NCc1cc(C(=O)O)ccn1)C(=O)NCc1ccccc1NC(=O)C1CC1C (stereo partly drawn) [Compound 7, 2-({[(1S)-3-methyl-1-({[2-(2-methylcyclopropane-amido)phenyl]methyl}carbamoyl)butyl]amino}methyl)pyridine-4-carboxylic acid] | 0.25 to 2.5 µM | 0.25 to 2.5 µM | > 2.5 µM | – |
| C=CCN(CC=C)C(=O)[C@@H](CC(=O)NCC1CC1)NCc1cc(C(=O)O)ccn1 [Compound 18, 2-({[(1R)-1-[bis(prop-2-en-1-yl)carbamoyl]-2-[(cyclopropylmethyl)carbamoyl]ethyl]amino}methyl)pyridine-4-carboxylic acid] | – | 0.25 to 2.5 µM | > 2.5 µM | 0.25 to 2.5 µM |
| CC(N[C@@H](C)C(=O)NCc1ccccc1CO)c1cc(C(=O)O)ccn1 (stereo partly drawn) [Compound 19, 2-(1-{[(1S)-1-({[2-(hydroxymethyl)phenyl]methyl}carbamoyl)ethyl]amino}ethyl) pyridine-4-carboxylic acid] | 0.25 to 2.5 µM | 0.25 to 2.5 µM | > 2.5 µM | – |
| C=CCN(CC=C)C(=O)[C@@H](CC(=O)NCCCC)NCc1cc(C(=O)O)ccn1 [Compound 24, 2-({[(1R)-1-[bis(prop-2-en-1-yl)carbamoyl]-2-(butylcarbamoyl)ethyl]amino}methyl)pyridine-4-carboxylic acid] | – | 0.25 to 2.5 µM | > 2.5 µM | > 2.5 µM |
| C=CCN(CC=C)C(=O)[C@@H](CCC(N)=O)NCc1cc(C(=O)O)ccn1 [Compound 25, 2-({[(1R)-1-[bis(prop-2-en-1-yl)carbamoyl]-3-carbamoylpropyl]amino}methyl)pyridine-4-carboxylic acid] | 0.25 to 2.5 µM | 0.25 to 2.5 µM | – | 0.25 to 2.5 µM |
| CC(N[C@@H](C)c1nccs1)c1cc(C(=O)O)ccn1 (stereo partly drawn) [Compound 28, 2-(1-{[(1S)-1-(1,3-thiazol-2-yl)ethyl]amino}ethyl) pyridine-4-carboxylic acid] | 0.25 to 2.5 µM | 0.25 to 2.5 µM | > 2.5 µM | – |
| CC(N[C@@H](C)C(=O)NCc1ccccc1)c1cc(C(=O)O)ccn1 (stereo partly drawn) [Compound 36, 2-(1-{[(1S)-1-(benzylcarbamoyl)ethyl]amino}ethyl)pyridine-4-carboxylic acid] | 0.25 to 2.5 µM | 0.25 to 2.5 µM | > 2.5 µM | – |
| CC(C)C[C@H](NCc1cc(C(=O)O)ccn1)C(=O)NCC1CCS(=O)(=O)C1 (stereo partly drawn) [Compound 38, 2-({[(1S)-1-{[(1,1-dioxo-1-thiolan-3-yl)methyl]carbamoyl}-3-methylbutyl]amino}methyl)pyridine-4-carboxylic acid] | 0.25 to 2.5 µM | 0.25 to 2.5 µM | > 2.5 µM | – |
| CCCC(NCC(=O)N1CCCCC1)c1cc(C(=O)O)ccn1 (stereo not shown) [Compound 45, 2-(1-{[2-oxo-2-(piperidin-1-yl)ethyl]amino}butyl) pyridine-4-carboxylic acid] | 0.25 to 2.5 µM | 0.25 to 2.5 µM | – | – |
| COc1ccc(CCCN(CC(=O)N2CCCCC2)Cc2cc(C(=O)O)ccn2)cc1 [Compound 46, 2-({[3-(4-methoxyphenyl)propyl] [2-oxo-2-(piperidin-1-yl)ethyl]amino}methyl) pyridine-4-carboxylic acid] | 0.25 to 2.5 µM | 0.25 to 2.5 µM | – | – |
| O=C(O)c1ccnc(CN2CCn3ccnc3C2)c1 [Compound 52, 2-{5H,6H,7H,8H-imidazo[1,2-a]pyrazin-7-ylmethyl}pyridine-4-carboxylic acid] | – | > 2.5 µM | > 2.5 µM | 0.25 to 2.5 µM |
| CN(C)CC1CCN(Cc2cc(C(=O)O)ccn2)Cc2nccn21 (stereo not shown) [Compound 54, 2-({5-[(dimethylamino)methyl]-5H,6H,7H,8H,9H-imidazo[1,2-a][1,4]diazepin-8-yl}methyl)pyridine-4-carboxylic acid] | – | > 2.5 µM | – | 0.25 to 2.5 µM |
| CC(C)C[C@@H]1[C@@H](O)CC(C)N1Cc1cc(C(=O)O)ccn1 (stereo partly drawn) [Compound 59, 2-{[(2R,3S)-3-hydroxy-5-methyl-2-(2-methylpropyl)pyrrolidin-1-yl]methyl}pyridine-4-carboxylic acid] | 0.25 to 2.5 µM | 0.25 to 2.5 µM | – | 0.25 to 2.5 µM |
| CC(C)C[C@H](NCc1cc(C(=O)O)ccn1)C1CCCO1 (stereo partly drawn) [Compound 60, 2-({[(1S)-3-methyl-1-(oxolan-2-yl)butyl]amino}methyl) pyridine-4-carboxylic acid] | – | > 2.5 µM | > 2.5 µM | < 0.25 µM |
| O=C(O)c1ccnc(CN2CCCCC2CO)c1 (stereo not shown) [Compound 66, 2-{[2-(hydroxymethyl)piperidin-1-yl]methyl} pyridine-4-carboxylic acid] | > 2.5 µM | 0.25 to 2.5 µM | – | > 2.5 µM |
| O=C(O)c1ccnc(CNCc2cncc3ccccc23)c1 [Compound 85, 2-{[(isoquinolin-4-ylmethyl)amino]methyl}pyridine-4-carboxylic acid] | – | < 0.25 µM | > 2.5 µM | – |
| O=C(O)c1ccnc(CNCc2ccc3ncccc3c2)c1 [Compound 87, 2-{[(quinolin-6-ylmethyl)amino]methyl}pyridine-4-carboxylic acid] | < 0.25 µM | 0.25 to 2.5 µM | – | < 0.25 µM |
| O=C(O)c1ccnc(CNC2CCc3c(CCc4ccccc4)ccnc32)c1 (stereo not shown) [Compound 96, 2-({[4-(2-phenylethyl)-5H,6H,7H-cyclopenta[b]pyridin-7-yl]amino}methyl)pyri-dine-4-carboxylic acid] | < 0.25 µM | < 0.25 µM | – | – |
| CCc1ccnc2c1CCC2NCc1cc(C(=O)O)ccn1 (stereo not shown) [Compound 97, 2-[({4-ethyl-5H,6H,7H-cyclopenta[b]pyridin-7-yl}amino)methyl]pyri-dine-4-carboxylic acid] | < 0.25 µM | < 0.25 µM | – | < 0.25 µM |
| CC1(C)Cc2cccnc2C1NCc1cc(C(=O)O)ccn1 (stereo not shown) [Compound 102, 2-[({6,6-dimethyl-5H,6H,7H-cyclopenta[b]pyridin-7-yl}amino)methyl]pyri-dine-4-carboxylic acid] | 0.25 to 2.5 µM | 0.25 to 2.5 µM | – | 0.25 to 2.5 µM |
| CCN1CCC[C@H](CNCc2cc(C(=O)O)ccn2)C1=O [Compound 107, 2-[({[(3R)-1-ethyl-2-oxopiperidin-3-yl]methyl}amino)methyl]pyridine-4-carboxylic acid] | – | < 0.25 µM | > 2.5 µM | < 0.25 µM |
